# Experimental data taken from patent publication US8288510B2, “Isolated peptides having phospholipase inhibitory activity” (priority 2008, dated 2012).
# Changes are numbered by the printed parent chain.
# B1: TLL: Thermomyces lanuginosus lipase, SEQ ID No. 9 (protein, listed as Thermomyces lanuginosus)
# chain: EVSQDLFNQFNLFAQYSAAAYCGKNNDAPAGTNITCTGNACPEVEKADATFLYSFEDSGVGDVTGFLALDNTNKLIVLSFRGSRSIENWIGNLNFDLKEINDICSGCRGHDGFTSSWRSVADTLRQKVEDAVREHPDYRVVFTGHSLGGALATVAGADLRGNGYDIDVFSYGAPRVGNRAFAEFLTVQTGGTLYRITHTNDIVPRLPPREFGYSHSSPEYWIKSGTLVPVTRNDIVKIEGIDATGGNNQPNIPDIPAHLWYFGLIGTCL
# B2: FoL: Fusarium oxysporum lipase, SEQ ID No. 1 (protein, listed as Fusarium oxysporum)
# chain: AVGVTTTDFSNFKFYIQHGAAAYCNSEAAAGSKITCSNNGCPTVQGNGATIVTSFVGSKTGIGGYVATDSARKEIVVSFRGSINIRNWLTNLDFGQEDCSLVSGCGVHSGFQRAWNEISSQATAAVASARKANPSFNVISTGHSLGGAVAVLAAANLRVGGTPVDIYTYGSPRVGNAQLSAFVSNQAGGEYRVTHADDPVPRLPPLIFGYRHTTPEFWLSGGGGDKVDYTISDVKVCEGAANLGCNGGTLGLDIAAHLHYFQATDACNAGGFSWRRYRSAESVDKRATMTDAELEKKLNSYVQMDKEYVKNNQARS
# Tests used:
# FOL wt = assay: Enzyme assay p-NP butyrate, inhibitory effect of peptides on FoL wildtype (Example 8); type: biochemical, Fusarium oxysporum; conditions: fitted against inhibitor/lipase ratio (peptide excess 0.5 to 1000), pH 7
# Protocol: (§1) Enzyme assay: The substrate used for these experiments was para-nitropenyl (p-NP) butyrate (N9876 Sigma Aldrich). A substrate stock solution was prepared by adding 18 μL of p-NP butyrate to 1 ml of 2-propanol giving a 100 mM stock solution. The working solution was prepared by diluting 500 μL stock solution in final volume of 50 mL 500 mM phosphate pH 7, 0.4% triton X-100. […] An enzyme substrate blank containing 60 μL was included. After pre-incubation in minimum 15 minutes, 100 μL of substrate was added and the reaction was followed in microtiter plate spectrophotometer (SPECTRAmax PLUS 384 from Molecular Devices) after an initial shaking (5 sec.) at room temperature. Colour development over time was monitored at A405 (every 20 sec. for 30 minutes), measuring p-nitrophenol, one of the degradation products of p-NP butyrate, liberated by the hydrolysis.
# (§2) Initial reaction rates (determined as the linear initial slope of A405 plotted against time) were plotted against the logarithm to the inhibitor/lipase ratio. From the following model IC50 values were determined:
# (§3) v0 is the initial reaction rate, vmax is the maximum rate, vmin is the minimum reaction rate and IC50 is the half maximal inhibitory concentration. GraphPad Prism (v.5.00, Mar. 12, 2007) from GraphPad Software, Inc. was used for regression.
# FOL I207E variant = assay: Enzyme assay p-NP butyrate, inhibitory effect of peptides on FoL variant I207E (Example 8); type: biochemical, Fusarium oxysporum; conditions: for IC50 value (half maximal inhibitory concentration): FOL I207E variant, fitted against inhibitor/lipase ratio (peptide excess 0.5 to 1000), p-NP butyrate, pH 7
# FOL I207E variant, sequence (as listed by the source, stated change not applied): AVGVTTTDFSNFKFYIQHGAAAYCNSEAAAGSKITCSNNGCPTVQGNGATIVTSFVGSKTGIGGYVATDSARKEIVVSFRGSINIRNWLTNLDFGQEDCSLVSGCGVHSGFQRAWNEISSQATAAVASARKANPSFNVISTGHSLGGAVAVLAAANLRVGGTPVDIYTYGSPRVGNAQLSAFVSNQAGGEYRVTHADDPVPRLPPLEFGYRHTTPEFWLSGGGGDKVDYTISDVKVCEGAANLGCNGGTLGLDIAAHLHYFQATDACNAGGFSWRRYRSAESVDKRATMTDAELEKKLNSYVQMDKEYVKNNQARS
# Protocol: as §1, §2, §3
# [1] = biological target: T1, TLL variant N248G/Q249G/P250T/N251L/I252G/P253L (Thermomyces lanuginosus, UniProt O59952, I274G/N270G/N273L/P272T/P275L/Q271G); assay: Enzyme assay p-NP butyrate, inhibitory effect of peptides on TLL variant (Example 9); type: biochemical; conditions: peptide/lipase ratios 5 to 5000 (P11, P13), 6 to 6000 (P12)
# T1 sequence (O59952 23-291 N270G/Q271G/P272T/N273L/I274G/P275L): B1 chain with N248G, Q249G, P250T, N251L, I252G, P253L
# Protocol: as §1, §2, §3
# Enzyme assay: As described above.
# [2] = Lecithin plate assay, clearing zone (phospholipase activity); type: biochemical; conditions: for Clearing zone diameter: after 20 hours incubation
molecule,measurement,setting,value
ATMTDAELEKKLNSYVQMAKEYVKNNQARS [P1′],IC50 value (half maximal inhibitory concentration),FOL wt,No
same,IC50 value (half maximal inhibitory concentration),FOL I207E variant,No
ATMTDAELEKKLNSYVQMDKEEVKNNQARS [Peptide P4],IC50 value (half maximal inhibitory concentration),FOL wt,No
same,IC50 value (half maximal inhibitory concentration),FOL I207E variant,Very low
ATMTDAELEKKLNSYVQMDKEYVKNNQARS [Peptide P0],"binding of the peptide by FoL variant I207E compared with wildtype enzyme (% inhibition curves, FIG. 8 C)",FOL I207E variant; 0% inhibition assumed for lowest peptide concentration,better at binding the peptide than the wildtype enzyme
ATMTDAELTKKLNSYVQMDKEYVKNNQARS [Peptide P2],IC50 value (half maximal inhibitory concentration),FOL wt,Very low
ATMTDAEVEKKLNSYVQMDKEYVKNNQARS [Peptide P11],IC50 value (half maximal inhibitory concentration),[1],Very low
ATMTEAELEKKLNSYVQMDKEYVKNNQARS [Peptide P1],IC50 value (half maximal inhibitory concentration),FOL wt,Very low
B1,Clearing zone diameter,[2]; ODA280 0.2,0 mm
same,Clearing zone diameter,[2]; ODA280 0.5,0 mm
same,Clearing zone (in words),"[2]; after 20 hours of incubation, ODA280 0.2 and 0.5",did not show a clearing zone
B2,Clearing zone diameter,[2]; ODA280 0.2,7 mm
same,Clearing zone diameter,[2]; ODA280 0.5,10 mm
